In patent US20250205372A1, “RADIOPHARMACEUTICAL COMPOSITIONS, SYNTHETIC METHODS, AND METHODS OF TREATMENT” (The Research Foundation for The State University of New York, priority 2022, published 2025):

Tests used:
Assay type in all cases: physicochemical
[1] = Variable temperature mass spectrometry (VTMS): binding of the first second sphere water; details: gas phase
Method: VTMS and CIVP: All experiments were carried out in a home-built quadrupole time-of-flight mass spectrometer described elsewhere (Waller, 2019). Briefly, the complexes were introduced into the gas phase via an electrospray ionization (ESI) source purged with dry air using PEEK tubing of 50 μm inner diameter. All samples were diluted to 50-100 μM in 50/50 acetonitrile/water from 500 μM stock solutions and an optimized flow rate of 0.6 μL/min was employed. The ESI voltages were typically 2050-2080 V, low enough to prevent sample degradation while still ensuring steady signal. Once generated, the ions were introduced into a vacuum system and stored in a room temperature […] trap. Ions were extracted from this trap and mass selected by a quadrupole mass filter (Extrel), then guided into a cryogenically cooled ion trap capable of operating in a temperature range of 310 K-3 K. For Variable temperature mass spectrometry (VTMS) measurements (Racow, 2019), a mixture of water and helium was introduced via a pulsed valve allowing the formation of hydrated complexes, if thermodynamically feasible. A fraction of ions was then extracted, at 10 Hz, into a reflectron time-of-flight (TOF) mass spectrometer to analyze the relative intensities of the resulting hydrates. The trap was cooled down from 310 K at a rate of ˜1 K/min and mass spectra were collected by summing 1000 scans at 10 K intervals in the cooling down period. The partial pressure of water was maintained between 4×10−8 to 2×10^−7 Torr as detected by a residual gas analyzer (Extorr). Vibrational spectra were recorded using a method known as Cryogenic Ion Vibrational Predissociation (CIVP) spectroscopy as described previously (Yang 2019). Briefly, a mixture of N2 and helium was seeded into the cryogenic ion trap, encouraging the formation of nitrogen adducts (so-called “tags”) typically between 45 K-48 K. Tagged complexes were extracted into the TOF and intersected by a tunable infrared laser pulse from a Nd:YAG pumped OPO/OPA system (LaserVision). The tagged ions absorb a single photon when the wavelength is resonant with a vibrational transition, resulting in the desorption of the tag from the ions. Fragment ion yields were subsequently quantified by a reflectron mass spectrometer. The ratio of fragment to tagged ions, corrected for the laser power, at each wavelength thus yields a linear absorption spectrum of the ions of interest that can be analyzed in the same way as atypical FTIR spectrum.
Data Analysis and Detailed Discussion. The variable temperature mass spectra and corresponding speciation curves of the protonated tripeptide+NOTA (4) and the Ga-tripeptide-NOTA complex (^natGa-4) are shown in FIGS. 71-75. At the highest temperature shown in both figures, no water adduct is observed. […] Similar values were found for the metal-free complex, further confirming that only second sphere hydration events were observed.

[2] = Temperature-dependent autolytic release from ^67Ga-radiolabeled model peptides (radioHPLC)
Method: ^67Ga-citrate was purchased from Jubilant Radiopharma at an average specific activity of 205.0 MBq/mL. The ^67Ga-citrate solution was first converted to ^67GaCl3 using an established solid-phase extraction protocol (Pandy, 2021). The resulting average specific activity of the obtained ^67Ga-chloride solution used for solution radio-labelling was 80.5 MBq/mL. For radio-labeling of NOTA-based model peptides or compound 10, a 20 μL aliquot containing 4.5 MBq of ^67GaCl3 was added to the conjugate (10 nmol, 300 μL) in 10 mM of sodium acetate (NaOAc) buffer. The pH of the solution was adjusted to 5.0. Radiolabeling was completed after 20 minutes at room temperature. The radiolabeled conjugates were characterized with radio-HPLC.

[3] = Quantitation of the ^68Ga(8) product released from TG-10 resin over time
[4] = Cleavage assay for cold complexes: pH-dependent autolytic cleavage monitored by LCMS/analytical HPLC; details: 80° C. and pH 4.5
Method: Cleavage of the cold model complexes was observed over a range of physiological pH conditions, including pH values of 4.5, 5.5, 6.5, and 7.5. Aqueous buffer solutions were prepared using 10 mM sodium acetate (pH 4.5 and 5.5) or 10 mM HEPES (pH 6.5 and 7.5), which were subsequently adjusted to the desired pH using NaOH and/or HCl. An aliquot of the complex was placed in an aqueous solution of the desired pH and incubated for 48 hours at 80° C., monitored regularly via LCMS.

## ^natGallium 2,2′-(7-(2-((1-1-((2-(((S)-1-amino-3-(1H-indol-3-yl)-1-oxopropan-2-yl)amino)-2-oxoethyl)amino)-3-hydroxy-1-oxopropan-2-yl)amino)-2-oxoethyl)-1,4,7-triazonane-1,4-diyl)diacetate [^natGa-4]
[1]
  ΔG (ΔG^298) for the binding of the first second sphere water: -30.1 ± 2.7 kJ/mol
  ΔH for the binding of the first second sphere water: -48.9 ± 2.6 kJ/mol
  ΔS for the binding of the first second sphere water: −62.9 +/− 17.5 J/mol K

## ^67Gallium (S)-2,2′-(7-(2-((2-((2-((I-amino-3-(1H-indol-3-yl)-1-oxopropan-2-yl)amino)-2-oxoethyl)amino)-2-oxoethyl)amino)-2-oxoethyl)-1,4,7-triazonane-1,4-diyl)diacetate [^67Ga-3]
[2]; 25° C.
  autolytic release (analytical radioHPLC chromatograms): no autolytic release
[2]; 37° C.
  autolytic release (analytical radioHPLC chromatograms): lack of fast autolytic release

## ^68Gallium (((1S)-1-carboxy-5-(3-(naphthalen-2-yl)-2-((1r,4S)-4-((6-oxo-6-((4-((1,4,7-tris(carboxymethyl)-1,4,7-triazonan-2-yl)methyl)phenyl)amino)hexanamido)methyl)cyclohexane-1-carboxamido)propanamido)pentyl)carbamoyl)-L-glutamic acid triacetate [^68Ga(8)]
[3]; released from TG-10, 10 min
  Activity released per time: 14.2 ± 1.57%
  Cumulative released activity: 14.2 ± 1.57%
[3]; released from TG-10, 20 min
  Activity released per time: 17.9 ± 0.97%
  Cumulative released activity: 32.1 ± 0.60%
[3]; released from TG-10, 30 min
  Activity released per time: 18.9 ± 0.61%
  Cumulative released activity: 50.9 ± 1.21%
[3]; released from TG-10, 60 min
  Activity released per time: 15.4 ± 0.85%
  Cumulative released activity: 66.3 ± 0.36%
[3]; released from TG-10, 90 min
  Activity released per time: 11.5 ± 0.84%
  Cumulative released activity: 77.8 ± 1.20%
[3]; released from TG-10, 120 min
  Activity released per time: 9.2 ± 1.56%
  Cumulative released activity: 87.0 ± 2.76%
[3]; released from TG-10, last line of table, time not given
  Cumulative released activity: 88.0%

## 2,2′-(7-(2-((1-1-((2-(((S)-1-amino-3-(1H-indol-3-yl)-1-oxopropan-2-yl)amino)-2-oxoethyl)amino)-3-hydroxy-1-oxopropan-2-yl)amino)-2-oxoethyl)-1,4,7-triazonane-1,4-diyl)diacetic acid [Compound 4]
[1]
  ΔG (ΔG^298) for the binding of the first second sphere water: -28.2 ± 0.8 kJ/mol
  ΔH for the binding of the first second sphere water: -55.4 ± 0.5 kJ/mol
  ΔS for the binding of the first second sphere water: −91.3 +/− 2.2 J/mol K

## ^natCopper 2,2′,2-(10-(2-(((R)-1-((2-(((S)-1-amino-3-(1H-indol-3-yl)-1-oxopropan-2-yl)amino)-2-oxoethyl)amino)-3-hydroxy-1-oxopropan-2-yl)amino)-2-oxoethyl)-1,4,7,10-tetraazacyclododecane-1,4,7-triyl)triacetate [^natCu-5]
[4]
  autolytic release (analytical HPLC chromatograms): no autolytic release

## ^natCopper (S)-2,2′-(7-(2-((2-((2-((1-amino-3-(1H-indol-3-yl)-1-oxopropan-2-yl)amino)-2-oxoethyl)amino)-2-oxoethyl)amino)-2-oxoethyl)-1,4,7-triazonane-1,4-diyl)diacetate [^natCu-3]
[4]
  autolytic release (analytical HPLC chromatograms): no autolytic release

## ^natCopper 2,2′-(7-(2-((1-1-((2-(((S)-1-amino-3-(1H-indol-3-yl)-1-oxopropan-2-yl)amino)-2-oxoethyl)amino)-3-hydroxy-1-oxopropan-2-yl)amino)-2-oxoethyl)-1,4,7-triazonane-1,4-diyl)diacetate [^natCu-4]
[4]
  autolytic release (analytical HPLC chromatograms): no autolytic release

## ^67Gallium 2,2′,2″-(10-(2-((1-1-((2-(((S)-1-amino-3-(H-indol-3-yl)-1-oxopropan-2-yl)amino)-2-oxoethyl)amino)-3-hydroxy-1-oxopropan-2-yl)amino)-2-oxoethyl)-1,4,7,10-tetraazacyclododecane-1,4,7-triyl)triacetate [^67Ga-5]
[2]; 25° C.
  autolytic release (analytical radioHPLC chromatograms): no autolytic release
[2]; 37° C.
  autolytic release (analytical radioHPLC chromatograms): no autolytic release
[2]; 80° C.
  autolytic release (analytical radioHPLC chromatograms): no autolytic release

## ^natGallium 2,2′,2″-(10-(2-((1-1-((2-(((S)-1-amino-3-(1H-indol-3-yl)-1-oxopropan-2-yl)amino)-2-oxoethyl)amino)-3-hydroxy-1-oxopropan-2-yl)amino)-2-oxoethyl)-1,4,7,10-tetraazacyclododecane-1,4,7-triyl)triacetate [^natGa-5]
[4]
  autolytic release (analytical HPLC chromatograms): no autolytic release

## (S)-2,2′-(7-(2-((2-((2-((I-amino-3-(1H-indol-3-yl)-1-oxopropan-2-yl)amino)-2-oxoethyl)amino)-2-oxoethyl)amino)-2-oxoethyl)-1,4,7-triazonane-1,4-diyl)diacetic acid [Compound 3]
[4]
  autolytic release (analytical HPLC chromatograms): no autolytic release

## ^natScandium 2,2′,2″-(10-(2-((1-1-((2-(((S)-1-amino-3-(1H-indol-3-yl)-1-oxopropan-2-yl)amino)-2-oxoethyl)amino)-3-hydroxy-1-oxopropan-2-yl)amino)-2-oxoethyl)-1,4,7,10-tetraazacyclododecane-1,4,7-triyl)triacetate [^natSc-5]
[4]
  autolytic release (analytical HPLC chromatograms): no autolytic release
